# Source: ChEMBL document CHEMBL1201862, “PubChem BioAssay data set” (2004)
# Counter-ions that a name gives are not always drawn. Calls of active or inactive are those of the source.
# How the values were obtained:
# [1] = Luminescence-based cell-based high throughput dose response assay to identify activators of the DAF-12 from the parasite S. stercoralis (ssDAF-12).; assay type: functional
# [2] = biological target: T1, Oxysterols receptor LXR-beta (Homo sapiens, UniProt P55055); test: LXR agonists, Gal4 luciferase reporter, dose response, counter-screen for ssDAF-12 agonist project, cell-based, luminescence, HEK293, S. stercoralis campaign (AID 720737); assay type: functional; details: read-out: IC50 (the source's name)
# T1 sequence (P55055 whole entry): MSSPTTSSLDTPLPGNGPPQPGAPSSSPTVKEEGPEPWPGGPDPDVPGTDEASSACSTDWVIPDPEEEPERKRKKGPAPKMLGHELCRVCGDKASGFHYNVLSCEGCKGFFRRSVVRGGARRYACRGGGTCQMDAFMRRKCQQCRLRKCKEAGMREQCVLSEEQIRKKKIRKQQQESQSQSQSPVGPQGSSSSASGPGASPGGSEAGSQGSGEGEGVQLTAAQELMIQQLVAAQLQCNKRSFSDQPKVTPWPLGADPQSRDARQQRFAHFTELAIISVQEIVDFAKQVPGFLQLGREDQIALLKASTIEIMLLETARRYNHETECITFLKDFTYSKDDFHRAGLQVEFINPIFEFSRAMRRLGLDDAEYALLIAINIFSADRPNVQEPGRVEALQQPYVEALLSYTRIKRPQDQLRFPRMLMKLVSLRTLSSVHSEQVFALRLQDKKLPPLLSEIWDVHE
# [3] = biological target: Voltage-gated inwardly rectifying potassium channel KCNH2 (Homo sapiens, UniProt Q12809); test: concentration-dependent hERG rescue from blockers – cell-based, thallium flux, dose response (AID 2121); assay type: ADME
# [4] = viability of HCT116 lacking mutant beta-catenin – cell-based, human colon tumor, dose response (AID 1045); assay type: functional;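 note: HCT116 colon tumor cells with beta catenin knocked out; cells exposed to compound for 60 hours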
# [5] = reduction of Shn3 3'UTR-driven luciferase in osteoblasts – cell-based, Clone20 osteoblasts, firefly luciferase, cherry-picked, dose response (AID 624132); assay type: functional;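 note: firefly luciferase luminescence from reporter carrying the Shn3 3'UTR in osteoblasts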
# [6] = Potency on glucagon-like peptide 1 release, dose-response in NCI-H716 cell line, half maximal inhibitory concentration (AID 1117344); assay type: functional, cell-based
# [7] = biological target: T2, Ubiquitin-conjugating enzyme E2 N (Homo sapiens, UniProt P61088); assay type: functional;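 note: Dose-response confirmation in a TR-FRET assay detecting UBC13-driven polyubiquitin chain formation, inhibition measured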
# T2 sequence (P61088 whole entry): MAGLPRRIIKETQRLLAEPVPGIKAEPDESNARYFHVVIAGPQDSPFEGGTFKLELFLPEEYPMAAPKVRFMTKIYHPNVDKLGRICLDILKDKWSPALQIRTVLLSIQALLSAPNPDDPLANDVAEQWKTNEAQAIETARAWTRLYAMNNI
# [8] = non-specific 3'UTR reporter inhibition in Clone20-Shn3RL – cell-based, Renilla luciferase, cherry-picked, counter-screen for Shn3 inhibitor project, dose response (AID 624133); assay type: functional
# [9] = microbe, parasite or virus in culture; assay type: functional; details: Mycobacterium tuberculosis
# [10] = glucagon-like peptide-1 release potency in STC-1, concentration-response, half-maximal inhibitory concentration in the STC-1 line (AID 1117345); assay type: functional, cell-based
# [11] = loss of viability in HepG2 cells – cell-based, CellTiter-Glo, cherry-picked, cytotoxicity control for Shn3 inhibitor project, dose response (AID 624134); assay type: functional
# [12] = Luminescence Cell-Based Dose Response HTS to Identify Inhibitors of 5'UTR Stem-Loop Driven Prion Protein mRNA Translation in H4 Neuroglioblastoma Cells. [Related pubchem assays: 1827 (Project Summary), 1813 (Primary HTS)]; assay type: functional
# [13] = alpha-synuclein stem-loop luciferase translation blockers – H4 neuroglioma cells, luminescence, confirmation (AID 1988); assay type: functional, cell-based
# [14] = viability of PTEN-deleted HCT116 cells – cell-based, HCT116 PTEN knockout, dose response (AID 1047); assay type: functional;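 note: HCT116 colon tumor cells with PTEN knocked out; cells exposed to compound for 60 hours before readout; potency for loss of cell viability measured by luminescence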
# [15] = tested on: INS1; test: INS-1E survival protection against cytokine death – cell-based, luminescence, retest, dose response (AID 449756); assay type: functional; details: Rattus norvegicus;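 note: cell death triggered by IL-1 beta plus TNF-alpha plus IFN-gamma mixture; protective hits raise ATP signal compared with cytokine alone wells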
# [16] = luciferase reporter signal suppression in cells – H4 neuroglioma cells, luminescence, dose response (AID 1990); assay type: functional, cell-based
# [17] = biological target: T3, Protein Tat (Human immunodeficiency virus type 1 group M subtype B (isolate HXB2)(HIV-1), UniProt P04608); assay type: functional;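 note: tat binding to TAR RNA read out by fluorescence polarization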
# T3 sequence (P04608 whole entry): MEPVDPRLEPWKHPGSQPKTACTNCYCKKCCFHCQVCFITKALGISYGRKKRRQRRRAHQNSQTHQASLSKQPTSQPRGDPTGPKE
# [18] = tested on: Escherichia coli; test: microbe, parasite or virus in culture
# [19] = tested on: Escherichia coli; test: microbe, parasite or virus in culture; remark: listed apart in the source
# [20] = biological target: T4, Aryl hydrocarbon receptor (Homo sapiens, UniProt P35869); details: Potency;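 note: confirmatory quantitative high-throughput screen measuring activation of the AhR signaling pathway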
# T4 sequence (P35869 whole entry): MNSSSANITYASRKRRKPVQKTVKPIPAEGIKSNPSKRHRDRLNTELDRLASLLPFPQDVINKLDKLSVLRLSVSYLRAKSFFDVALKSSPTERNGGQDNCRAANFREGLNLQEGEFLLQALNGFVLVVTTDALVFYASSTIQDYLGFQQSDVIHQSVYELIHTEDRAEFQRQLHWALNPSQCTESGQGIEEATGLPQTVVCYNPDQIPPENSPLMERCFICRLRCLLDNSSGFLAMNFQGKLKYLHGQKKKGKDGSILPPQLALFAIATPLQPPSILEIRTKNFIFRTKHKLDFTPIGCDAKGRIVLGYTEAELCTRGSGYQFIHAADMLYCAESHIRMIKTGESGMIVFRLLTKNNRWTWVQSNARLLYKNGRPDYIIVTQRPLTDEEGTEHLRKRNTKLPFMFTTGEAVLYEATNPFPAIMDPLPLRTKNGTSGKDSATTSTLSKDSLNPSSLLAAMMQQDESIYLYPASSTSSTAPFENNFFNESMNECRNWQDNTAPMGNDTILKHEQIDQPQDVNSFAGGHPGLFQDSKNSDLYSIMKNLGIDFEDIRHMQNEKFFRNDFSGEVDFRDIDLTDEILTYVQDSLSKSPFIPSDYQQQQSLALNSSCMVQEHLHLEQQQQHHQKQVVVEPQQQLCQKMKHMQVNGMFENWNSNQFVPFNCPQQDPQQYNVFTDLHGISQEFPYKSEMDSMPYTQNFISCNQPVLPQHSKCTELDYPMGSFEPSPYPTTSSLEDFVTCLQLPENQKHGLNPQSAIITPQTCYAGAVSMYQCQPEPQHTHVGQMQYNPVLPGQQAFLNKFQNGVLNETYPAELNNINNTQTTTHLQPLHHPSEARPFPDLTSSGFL
# [21] = biological target: Heat shock protein HSP 90-alpha (Homo sapiens, UniProt P07900); assay type: functional, organism-based
# [22] = biological target: T5, Bcl-2-related protein A1 (Mus musculus, UniProt Q07440); test: Bfl-1 binding inhibitors, SAR follow-up, biochemical, fluorescence polarization (AID 1070)
# T5 sequence (Q07440 whole entry): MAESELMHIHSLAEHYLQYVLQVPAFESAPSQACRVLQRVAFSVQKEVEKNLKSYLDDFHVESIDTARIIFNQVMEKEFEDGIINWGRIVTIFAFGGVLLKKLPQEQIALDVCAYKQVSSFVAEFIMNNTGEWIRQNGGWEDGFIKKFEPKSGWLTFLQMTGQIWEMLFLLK
# [23] = biological target: Glyceraldehyde-3-phosphate dehydrogenase (Homo sapiens, UniProt P04406)
# [24] = biological target: T5, Bcl-2-related protein A1; test: small-molecule antagonists of Bfl-1/BH3 interaction – biochemical, TR-FRET, mouse Bfl-1, confirmation (AID 621);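 note: TR-FRET binding of GST-Bfl-1 to FITC-labelled Bid peptide via terbium antibody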
# [25] = biological target: T6, DNA repair protein RAD52 homolog (Homo sapiens, UniProt P43351); assay type: functional, biochemical
# T6 sequence (P43351 whole entry): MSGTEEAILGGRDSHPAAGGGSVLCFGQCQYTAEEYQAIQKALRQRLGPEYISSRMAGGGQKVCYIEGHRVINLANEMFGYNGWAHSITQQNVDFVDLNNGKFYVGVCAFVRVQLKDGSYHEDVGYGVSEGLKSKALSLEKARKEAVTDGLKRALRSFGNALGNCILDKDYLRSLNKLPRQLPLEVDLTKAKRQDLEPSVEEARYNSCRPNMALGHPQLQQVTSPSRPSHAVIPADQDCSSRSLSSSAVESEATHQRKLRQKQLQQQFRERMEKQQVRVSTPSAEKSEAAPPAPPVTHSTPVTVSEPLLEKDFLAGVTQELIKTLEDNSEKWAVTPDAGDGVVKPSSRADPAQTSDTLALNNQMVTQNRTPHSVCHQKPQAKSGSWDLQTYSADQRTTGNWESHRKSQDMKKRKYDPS
# [26] = Trypanosoma cruzi growth suppression in host cells – NIH3T3 host cells, beta-gal luminescence, confirmation (AID 2044); assay type: functional, cell-based;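 note: intracellular parasites grown in NIH/3T3 mouse fibroblasts as host cells; luminescent beta-galactosidase reporter signal from transgenic T. cruzi replicating inside host cells; inhibitors lower the luminescence signal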
# [27] = biological target: FAD-linked sulfhydryl oxidase ALR (Homo sapiens, UniProt P55789); test: ALR-catalysed DTT oxidation blockers – biochemical, H2O2 detection, luminescence, cherry-pick, dose response (AID 493248)
# [28] = NIH3T3 cell viability loss – ATP luminescence, mouse fibroblasts, counter-screen, dose response (AID 2010); assay type: functional, cell-based;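 note: cells exposed to compound for about 90 hours before reading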
# [29] = biological target: T7, Glutathione-S-transferase (Schistosoma japonicum, UniProt Q26513); test: GST-antibody interaction or FRET quenching – biochemical, TR-FRET, artefact control for Vif-APOBEC3G degradation inhibitor project, dose response (AID 1117362); assay type: functional
# T7 sequence (Q26513 whole entry): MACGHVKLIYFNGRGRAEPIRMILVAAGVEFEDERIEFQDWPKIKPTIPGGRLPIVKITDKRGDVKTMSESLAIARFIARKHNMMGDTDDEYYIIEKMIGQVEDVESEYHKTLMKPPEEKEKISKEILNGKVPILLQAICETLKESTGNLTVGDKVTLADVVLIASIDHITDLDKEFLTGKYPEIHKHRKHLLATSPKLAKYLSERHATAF
# [30] = viability loss in THP-1 monocytes – THP-1 cells, cytotoxicity control for Vif-APOBEC3G degradation inhibitor project, dose response (AID 1117359); assay type: functional; details: THP-1
# [31] = biological target: T8, Carboxy-terminal domain RNA polymerase II polypeptide A small phosphatase 1 (Homo sapiens, UniProt Q9GZU7); test: CTDSP1 inhibitors, concentration-response, biochemical, absorbance readout, ultra-high-throughput screen actives (AID 540297); assay type: functional
# T8 sequence (Q9GZU7 whole entry): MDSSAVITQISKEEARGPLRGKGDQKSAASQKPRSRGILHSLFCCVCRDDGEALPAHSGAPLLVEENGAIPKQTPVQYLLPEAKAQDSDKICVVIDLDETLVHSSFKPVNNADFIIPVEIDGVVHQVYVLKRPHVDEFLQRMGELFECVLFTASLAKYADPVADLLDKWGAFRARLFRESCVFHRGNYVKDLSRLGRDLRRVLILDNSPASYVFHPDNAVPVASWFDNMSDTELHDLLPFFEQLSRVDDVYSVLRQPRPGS
# [32] = biological target: T9, Estrogen receptor beta (Homo sapiens, UniProt Q92731);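 note: recombinant ER-beta bound to coactivator SRC1 peptide in presence of estradiol agonist; inhibitors block coactivator peptide binding and lower the FRET signal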
# [33] = biological target: T9, Estrogen receptor beta; test: blockers of SRC-3 recruitment to ERβ – biochemical, ELISA, streptavidin-HRP readout, orthogonal assay, confirmation (AID 1060)
# T9 sequence (Q92731 whole entry): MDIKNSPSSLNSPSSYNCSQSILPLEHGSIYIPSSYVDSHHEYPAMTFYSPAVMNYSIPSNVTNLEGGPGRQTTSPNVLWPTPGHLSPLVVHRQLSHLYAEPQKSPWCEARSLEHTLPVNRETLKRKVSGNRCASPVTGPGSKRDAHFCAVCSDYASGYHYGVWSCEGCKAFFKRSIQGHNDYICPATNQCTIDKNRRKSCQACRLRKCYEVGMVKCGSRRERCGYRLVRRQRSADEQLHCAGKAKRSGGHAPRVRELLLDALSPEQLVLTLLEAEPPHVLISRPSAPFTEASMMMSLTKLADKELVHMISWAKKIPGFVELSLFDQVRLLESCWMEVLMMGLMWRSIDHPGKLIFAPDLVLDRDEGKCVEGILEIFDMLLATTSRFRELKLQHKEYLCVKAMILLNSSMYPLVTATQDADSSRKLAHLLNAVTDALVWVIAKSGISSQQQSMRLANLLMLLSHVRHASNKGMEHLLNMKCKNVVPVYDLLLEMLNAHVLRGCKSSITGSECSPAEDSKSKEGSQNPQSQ
# Sequence of Voltage-gated inwardly rectifying potassium channel KCNH2 (Q12809 whole entry): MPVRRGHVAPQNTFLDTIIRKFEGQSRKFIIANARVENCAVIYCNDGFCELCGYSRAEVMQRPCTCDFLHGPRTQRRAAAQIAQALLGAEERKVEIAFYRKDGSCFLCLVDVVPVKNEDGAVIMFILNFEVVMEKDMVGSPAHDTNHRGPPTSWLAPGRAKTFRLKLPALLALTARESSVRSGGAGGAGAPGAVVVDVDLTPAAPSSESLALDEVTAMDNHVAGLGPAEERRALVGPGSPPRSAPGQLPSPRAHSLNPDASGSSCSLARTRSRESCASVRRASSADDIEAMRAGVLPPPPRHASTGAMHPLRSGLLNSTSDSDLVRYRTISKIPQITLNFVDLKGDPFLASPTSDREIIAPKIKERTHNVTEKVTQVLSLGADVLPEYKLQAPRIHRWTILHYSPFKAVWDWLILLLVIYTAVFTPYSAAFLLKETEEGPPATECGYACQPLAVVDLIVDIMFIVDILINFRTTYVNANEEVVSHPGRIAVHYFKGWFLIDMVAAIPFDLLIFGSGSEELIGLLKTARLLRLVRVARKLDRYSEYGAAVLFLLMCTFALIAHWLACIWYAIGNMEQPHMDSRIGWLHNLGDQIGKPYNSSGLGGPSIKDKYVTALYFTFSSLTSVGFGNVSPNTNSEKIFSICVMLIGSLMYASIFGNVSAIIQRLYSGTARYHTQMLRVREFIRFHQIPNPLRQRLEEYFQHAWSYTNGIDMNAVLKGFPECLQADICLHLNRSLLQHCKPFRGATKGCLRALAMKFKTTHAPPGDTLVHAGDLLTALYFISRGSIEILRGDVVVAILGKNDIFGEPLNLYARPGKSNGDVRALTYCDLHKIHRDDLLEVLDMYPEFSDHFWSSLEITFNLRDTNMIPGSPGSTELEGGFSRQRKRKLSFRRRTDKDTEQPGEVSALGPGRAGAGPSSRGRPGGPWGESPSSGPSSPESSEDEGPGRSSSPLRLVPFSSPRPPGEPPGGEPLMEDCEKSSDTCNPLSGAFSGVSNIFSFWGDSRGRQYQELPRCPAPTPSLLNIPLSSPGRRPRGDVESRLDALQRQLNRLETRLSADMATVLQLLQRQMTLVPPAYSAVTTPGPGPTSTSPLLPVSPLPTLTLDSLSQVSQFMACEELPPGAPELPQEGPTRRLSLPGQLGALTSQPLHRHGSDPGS
# Sequence of Glyceraldehyde-3-phosphate dehydrogenase (P04406 whole entry): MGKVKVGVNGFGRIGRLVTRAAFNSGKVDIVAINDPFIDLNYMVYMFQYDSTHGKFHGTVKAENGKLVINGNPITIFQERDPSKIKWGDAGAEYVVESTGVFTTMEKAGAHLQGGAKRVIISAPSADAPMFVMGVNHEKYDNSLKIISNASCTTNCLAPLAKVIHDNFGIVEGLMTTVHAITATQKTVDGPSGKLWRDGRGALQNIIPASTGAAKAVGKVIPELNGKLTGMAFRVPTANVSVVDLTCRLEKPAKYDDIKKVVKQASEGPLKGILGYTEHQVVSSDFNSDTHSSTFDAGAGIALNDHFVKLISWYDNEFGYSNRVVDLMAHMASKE
# Sequence of FAD-linked sulfhydryl oxidase ALR (P55789 whole entry): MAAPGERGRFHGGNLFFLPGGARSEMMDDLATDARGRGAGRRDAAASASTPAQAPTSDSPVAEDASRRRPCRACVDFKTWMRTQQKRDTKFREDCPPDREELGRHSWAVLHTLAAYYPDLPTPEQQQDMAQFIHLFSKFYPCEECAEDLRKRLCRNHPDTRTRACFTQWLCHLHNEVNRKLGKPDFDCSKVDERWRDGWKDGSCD
smiles,measurement,setting,value
Cc1nn(Cc2ccccc2)c(Cl)c1/C=N/NC(=O)c1cccnc1,IC50,[1],> 67.5 µM (inactive)
same,EC50,[2],> 67.5 µM (inactive)
CC1CN(C(=S)NC(=O)c2ccc(Cl)cc2)CC(C)O1 (stereo not given),EC50,[3],5.66 µM (active)
CC(C)(C)c1ccc(C(O)CCCN2CCC(C(O)(c3ccccc3)c3ccccc3)CC2)cc1 (stereo not given) [TERFENADINE],EC50,[4],4.55 µM (active)
same,AC50,[5],16.7 µM (active)
same,IC50,[6],20.5 µM (inactive)
same,IC50,[7],> 20 µM (inactive)
same,AC50,[8],12.9 µM (active)
same,CC50,[9],9.24 µM (active)
same,IC50,[10],> 40 µM (inactive)
same,AC50,[11],11.4 µM (active)
same,EC50,[12],6.46 µM (active)
same,EC50,[13],4.26 µM (active)
same,EC50,[14],4.43 µM (active)
same,AC50,[15],8.13 µM (active)
same,EC50,[16],> 120 µM (not active)
CC1(C)Cc2nc3sc4c(SCC(=O)NCc5ccco5)ncnc4c3cc2CO1,IC50,[17],> 100 µM (active)
C[C@@H](NCCCc1cccc(C(F)(F)F)c1)c1cccc2ccccc12 [CINACALCET HYDROCHLORIDE],IC50,[6],17.2 µM (inactive)
same,IC50,[10],> 40 µM (inactive)
Oc1cc(Cl)ccc1Oc1ccc(Cl)cc1Cl [TRICLOSAN],AC50,[18],0.329 µM (active)
same,IC50,[6],21.3 µM (inactive)
same,AC50,[19],1.06 µM (active)
same,IC50,[10],2.55 µM (active)
same,AC50,[20],70.8 µM (inconclusive)
same,AC50,[21],7.85 µM (active)
CCOC(=O)Cc1csc(NC(=S)NC(=O)C(C)(C)C)n1,EC50,[3],2.51 µM (active)
O=C1C(Cl)=C(N2CCN(CCO)CC2)C(=O)N1c1ccc(Cl)c(Cl)c1,IC50,[22],0.556 µM (active)
same,IC50,[23],> 100 µM (not active)
same,IC50,[24],0.59 µM (active)
CC1(C)CC(Nc2ccc(Nc3ccccc3)cc2)CC(C)(C)N1,AC50,[25],13.9 µM (active)
same,EC50,[26],4.14 µM (active)
same,AC50,[27],0.27 µM (active)
same,EC50,[28],> 60 µM (not active)
same,IC50,[29],64.5 µM (active)
same,CC50,[30],> 40 µM (active)
O=C(Cc1cccs1)Nc1ccc(S(=O)(=O)N2CCCCC2)cc1,IC50,[31],4.95 µM (active)
same,IC50,[32],2.71 µM (active)
same,IC50,[33],< 77 µM (not active)
Cc1ccccc1N1CCN(C2=C(Cl)C(=O)N(c3ccc(Cl)c(Cl)c3)C2=O)CC1,IC50,[22],> 100 µM (not active)
same,IC50,[23],> 100 µM (not active)
same,IC50,[24],> 100 µM (not active)
CCSc1nnc(Cc2cc(=O)[nH]c(=O)[nH]2)n1-c1cc(C)ccc1C,IC50,[32],> 50 µM (not active)
O=C(COc1ccc(Cl)cc1Cl)NC(=S)N1CCCc2ccccc21,EC50,[3],4.06 µM (active)
C=CCn1c(COc2ccc(OC)cc2)nnc1SCn1nnc2ccccc2c1=O,IC50,[1],> 67.6 µM (inactive)
same,EC50,[2],> 67.6 µM (inactive)
